The values below are quoted from earlier work in patent US8759403B2, “Curcuminoids and its metabolites for the application in allergic ocular/nasal conditions” (Laila Pharmaceutical Pvt. Ltd., priority 2009, dated 2014).

The structures appear in SMILES notation.

One data set concerns guinea pigs. To be noted: 20 mg/kg body weight.
The test system of another data set is murine model of allergy. The settings on record: mouse, in vivo.

`COc1cc(/C=C/C(=O)CC(=O)/C=C/c2ccc(O)c(OC)c2)ccc1O` [curcumin]: the airway hyper reactivity result in the data set on guinea pigs (p<0.0043) was “significantly inhibits”. Besides, in the data set with guinea pigs (p<0.0399), the OVA-induced airway constriction result was “significantly inhibits”. Further, in the data set with murine model of allergy, the “allergic response in treated animals” value was “marked inhibition of allergic response”. In addition, the “histamine release from mast cells” value in the data set on mast cells is recorded as “inhibitory effect”.
